# Reference: patent US8604034B2, “Substituted imidazo[1,2-α]pyrrolo[1,2-d]pyrazines for treating respiratory syncytial virus (RSV) infections” (Biota Scientific Management Pty Ltd., priority 2010, dated 2013)
# Where a name gives a salt, the structure may show the parent alone. Read-outs that look alike come from different tables or passages of the source.
# Tested on: RSV A2
# Experiment: RSV antiviral cytopathic effect (CPE) assay
# Assay type: cell-based
# Details: human respiratory syncytial virus, HEp-2, 120 h, HEp2 cells infected with RSV A2 (moi ~0.01), 5 days, MTT readout
# Method in brief: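 HEp2 cells infected with RSV A2 (moi ~0.01) and incubated with serially diluted compound for 5 days at 37 °C. CPE read by MTT metabolism (absorbance 540/650 nm); uninfected cells gave cytotoxicity. EC50 and CC50 obtained by non-linear regression.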
# [1] = read-out: Activity Range (RSV A2 EC50)
# [2] = mean EC50, read-out: RSV A2 EC50
EC50 [1],EC50 [2],SMILES
50 to 99 nM,66 nM,Cc1ccc(C23Cn4nc(-c5ccccn5)cc4C(=O)N2CCN3C(=O)c2conc2C)cc1 (stereo not shown) [Compound 139]
500 to 10000 nM,550 nM,Cc1nocc1C(=O)N1CCN2C(=O)c3cc(-c4cccn4C)nn3CC12c1ccc(Cl)cc1 (stereo not shown) [Compound 140]
< 49 nM,39 nM,Cc1nocc1C(=O)N1CCN2C(=O)c3cc(-c4cccs4)nn3CC12c1ccc(Cl)cc1 (stereo not shown) [Compound 141]
500 to 10000 nM,6700 nM,"Cc1nocc1C(=O)N1CCN2C(=O)c3cccn3CC12c1ccc(O)nc1 (stereo not shown) [Compound 142, 10a-(6-hydroxypyridin-3-yl)-1-[(3-methyl-1,2-oxazol-4-yl)carbonyl]-2,3,10,10a-tetrahydro-1H,5H-imidazo[1,2-a]pyrrolo[1,2-d]pyrazin-5-one]"
500 to 10000 nM,750 nM,"Cc1nocc1C(=O)N1CCN2C(=O)c3cccn3CC12c1ccc(=O)n(C)c1 (stereo not shown) [Compound 143, 1-[(3-methyl-1,2-oxazol-4-yl)carbonyl]-10a-(1-methyl-6-oxo-1,6-dihydropyridin-3-yl)-2,3,10,10a-tetrahydro-1H,5H-imidazo[1,2-a]pyrrolo[1,2-d]pyrazin-5-one]"
50 to 99 nM,79 nM,Cc1nocc1C(=O)N1CCN2C(=O)c3cc(-c4cnn(C)c4)cn3CC12c1ccc(CO)cc1 (stereo not shown) [Compound 144]
500 to 10000 nM,3700 nM,"COc1ccc(C23Cn4cc(-c5nnnn5C)cc4C(=O)N2CCN3C(=O)c2conc2C)cc1 (stereo not shown) [Compound 145, 10a-(4-methoxyphenyl)-1-[(3-methyl-1,2-oxazol-4-yl)carbonyl]-7-(1-methyl-1H-tetrazol-5-yl)-2,3,10,10a-tetrahydro-1H,5H-imidazo[1,2-a]pyrrolo[1,2-d]pyrazin-5-one]"
< 49 nM,46 nM,"COc1ccc(C23Cn4cc(-c5nnn(C)n5)cc4C(=O)N2CCN3C(=O)c2conc2C)cc1 (stereo not shown) [Compound 146, 10a-(4-methoxyphenyl)-1-[(3-methyl-1,2-oxazol-4-yl)carbonyl]-7-(2-methyl-2H-tetrazol-5-yl)-2,3,10,10a-tetrahydro-1H,5H-imidazo[1,2-a]pyrrolo[1,2-d]pyrazin-5-one]"
100 to 499 nM,390 nM,"COc1ccc(C23Cn4cc(CN)cc4C(=O)N2CCN3C(=O)c2conc2C)cc1 (stereo not shown) [Compound 147, 7-(aminomethyl)-10a-(4-methoxyphenyl)-1-[(3-methyl-1,2-oxazol-4-yl)carbonyl]-2,3,10,10a-tetrahydro-1H,5H-imidazo[1,2-a]pyrrolo[1,2-d]pyrazin-5-one; trifluoroacetate salt]"
< 49 nM,38 nM,Cc1nocc1C(=O)N1CCN2C(=O)c3cccc(=O)n3CC12c1ccc(F)cc1 (stereo not shown) [Compound 148]
100 to 499 nM,130 nM,COc1ccc(C23Cn4c(cccc4=O)C(=O)N2CCN3C(=O)c2conc2C)cc1 (stereo not shown) [Compound 149]
< 49 nM,11 nM,Cc1ccc(C23Cn4c(cccc4=O)C(=O)N2CCN3C(=O)c2conc2C)cc1 (stereo not shown) [Compound 150]
< 49 nM,8.7 nM,Cc1ccc(C23Cn4c(C)ccc4C(=O)N2CCN3C(=O)c2conc2C)cn1 (stereo not shown) [Compound 151]
< 49 nM,5.8 nM,COc1ccc(C23Cn4c(C)ccc4C(=O)N2CCN3C(=O)c2conc2C)cn1 (stereo not shown) [Compound 152]
< 49 nM,6.2 nM,Cc1nocc1C(=O)N1CCN2C(=O)c3ccc(C)n3CC12c1ccc(CO)cc1 (stereo not shown) [Compound 153]
< 49 nM,2.3 nM,"Cc1nocc1C(=O)N1CCN2C(=O)c3ccc(C)n3CC12c1ccc(F)cc1 (stereo not shown) [Compound 154, 10a-(4-fluorophenyl)-8-methyl-1-[(3-methyl-1,2-oxazol-4-yl)carbonyl]-2,3,10,10a-tetrahydro-1H,5H-imidazo[1,2-d]pyrrolo[1,2-d]pyrazin-5-one]"
100 to 499 nM,360 nM,COc1ccc(C23Cn4nccc4C(=O)N2CCN3C(=O)c2conc2C)cc1 (stereo not shown) [Compound 157]
